The source of these data is US5164188A, “Biodegradable ocular implants” (Visionex, Inc., priority 1989, dated 1992).

Data set [1] can be described thus: in vivo. As to conditions: rabbit.
For data set [2] the following is noted: rabbit, in vivo.
Data set [3] is described as follows: in vivo. Particulars: rabbit. The source holds these as a separate data set.
For data set [4] the following is noted: rabbit, in vivo. This is another data set of the same source.
Data set [5] in a line: MTX level in eye, plaque in pars plana (EMIT). Type of data set: in vivo, rabbit. As to conditions: for Drug level, LE PC: left eye, posterior chamber, plaque in one eye only.
The nature of data set [6]: MTX level in eye, microcapsules in pars plana (EMIT). The format is in vivo, rabbit. Particulars: for Drug level, LE PC: left eye, posterior chamber, microcapsule in one eye only.
In another data set the test system is VX2 adenocarcinoma. Particulars: in vitro; cited from earlier work.

Like-named read-outs stand apart in the source and are kept apart here.

In the data set “in vivo [1]”, `C[C@]12CCC(=O)C=C1CC[C@@H]1[C@@H]2[C@@H](O)C[C@@]2(C)[C@H]1CC[C@]2(O)C(=O)CO` [Hydrocortisone, hydrocortisone] came in with a concentration at 720 h of 1300 ng/mL. The compound further had a concentration at 1440 h in the data set “in vivo [1]” of 1900 ng/mL. The compound further yielded a concentration at 2160 h in “in vivo [1]” of 2300 ng/mL. Also, the “Drug level, RE PC” value in data set [2] (10080 min), in data set [2] (20160 min), in data set [2] (30240 min), in data set [2] (40320 min), in data set [2] (50400 min) and in data set [2] (60480 min) was 0 ng/mL throughout. Besides, the “Drug level, RE PC” value in data set [4] (43200 min), in data set [4] (86400 min) and in data set [4] (129600 min) was 0 ng/mL each time. This compound showed a concentration at 168 h in the data set “in vivo [3]” of 1300 ng/mL. In addition, the concentration at 336 h in the data set “in vivo [3]” worked out at 2000 ng/mL. Besides, in the data set “in vivo [3]”, the concentration at 504 h was determined as 2400 ng/mL. In “in vivo [3]”, this compound yielded a concentration at 672 h of 1100 ng/mL. Further, the concentration at 840 h in the data set “in vivo [3]” amounted to 900 ng/mL. The concentration at 1008 h in the data set “in vivo [3]” is 2000 ng/mL.
Take `CN(Cc1cnc2nc(N)nc(N)c2n1)c1ccc(C(=O)N[C@@H](CCC(=O)O)C(=O)O)cc1` [MTX, methotrexate]: the “Drug level, LE PC” value in data set [5] (1 mo), in data set [5] (2 mos), in data set [5] (3 mos), in data set [6] (1 wk), in data set [6] (2 wks) and in data set [6] (3 wks) was 0 ng/mL throughout. Also, the “Drug level, LE PC” value in data set [6] (4 wks), in data set [6] (5 wks) and in data set [6] (6 wks) was 0 ng/mL in each case. For the same compound, the concentration at 720 h in data set [5] (rabbit, posterior chamber of eye, right eye, 1 mo, plaque, read-out: Drug level, RE PC) is 1500 ng/mL. Moreover, the concentration at 1440 h in data set [5] (rabbit, posterior chamber of eye, right eye, 2 mos, plaque, read-out: Drug level, RE PC) was found to be 4000 ng/mL. Moreover, the concentration at 2160 h in data set [5] (rabbit, posterior chamber of eye, right eye, 3 mos, plaque, read-out: Drug level, RE PC) was determined as 2000 ng/mL. In addition, in data set [6] (rabbit, posterior chamber of eye, right eye, 1 wk, microcapsule, read-out: Drug level, RE PC), the concentration at 168 h worked out at 800 ng/mL. The concentration at 336 h in data set [6] (rabbit, posterior chamber of eye, right eye, 2 wks, microcapsule, read-out: Drug level, RE PC) is 1200 ng/mL. Besides, in data set [6] (rabbit, posterior chamber of eye, right eye, 3 wks, microcapsule, read-out: Drug level, RE PC), the concentration at 504 h is 1400 ng/mL. For the same compound, the concentration at 672 h in data set [6] (rabbit, posterior chamber of eye, right eye, 4 wks, microcapsule, read-out: Drug level, RE PC) worked out at 700 ng/mL. Also, the concentration at 840 h in data set [6] (rabbit, posterior chamber of eye, right eye, 5 wks, microcapsule, read-out: Drug level, RE PC) worked out at 1000 ng/mL. Further, the concentration at 1008 h in data set [6] (rabbit, posterior chamber of eye, right eye, 6 wks, microcapsule, read-out: Drug level, RE PC) was 900 ng/mL.
As to `CC[C@]1(O)C[C@H]2CN(CCc3c([nH]c4ccccc34)[C@@](C(=O)OC)(c3cc4c(cc3OC)N(C=O)[C@H]3[C@@](O)(C(=O)OC)[C@H](OC(C)=O)[C@]5(CC)C=CCN6CC[C@]43[C@@H]65)C2)C1` [Vincristine], in the data set on VX2 adenocarcinoma, the IC50 is 2 to 3 ng/mL.

By IC50 is commonly meant the midpoint of a concentration-inhibition curve.
